Assay results reported in patent US9359313B2, “Use of metformin in combination with a glucokinase activator and compositions comprising metformin and a glucokinase activator” (vTv Therapeutics LLC, priority 2010, dated 2016).
Each block holds one compound with its values, some of them ahead of it.

How the values were obtained:
diabetic ob/ob mice = test: Treatment of diabetic ob/ob mice with UD1 and metformin: post-prandial glucose; type: in vivo; details: 75 mg/kg UD1, 100 mg/kg Met; for mean post-prandial glucose level / mean glucose level: n=10; for mean glucose level: time 0 hours (baseline)
Procedure: Before treatment, the mice were assigned to four groups based on baseline glucose levels and body weight (n=10 for each group). Each group of mice was dosed with one of the following: (1) a control substance; (2) 75 mg/kg UD1; (3) 100 mg/kg metformin (Met); or (4) 75 mg/kg UD1 and 100 mg/kg metformin (Met). Post-prandial glucose was measured at time points of 1, 3, 5, 7, and 9 hours following dosing.

[1] = Pharmacokinetic evaluation of three oral UD1 dosage forms in male beagle dogs; type: in vivo; details: 100 mg of UD1, fasted, mean of 3 dogs
Procedure: For all nine dogs, 100 mg of UD1 was administered orally. Each dog was dosed in a fasted state, where food was provided 4 hours following dosing. Blood samples were taken for pharmacokinetic (PK) evaluation at the following time intervals following dosing: 0.5, 1.0, 2.0, 4.0, 6.0, 8.0, 12.0, and 24.0 hours.

SMILES: CN(C)C(=N)NC(=N)N [Met, N,N-dimethylimidodicarbonimidic diamide, reference compound]
- change in glucose levels relative to control, AUC 0-9 hrs (diabetic ob/ob mice): -39 mg·h/dL
- mean post-prandial glucose level (diabetic ob/ob mice; 1 hour following dosing): 357 mg/dL
- mean post-prandial glucose level (diabetic ob/ob mice; 3 hours following dosing): 334 mg/dL
- mean post-prandial glucose level (diabetic ob/ob mice; 5 hours following dosing): 459 mg/dL
- mean post-prandial glucose level (diabetic ob/ob mice; 7 hours following dosing): 501 mg/dL
- mean post-prandial glucose level (diabetic ob/ob mice; 9 hours following dosing): 484 mg/dL
- mean glucose level (diabetic ob/ob mice): 389 mg/dL

- AUC0-∞ [1]: 15.802 µg·h/mL
- Cmax [1]: 6.985 µg/mL
SMILES: CCCO[C@H]1CC[C@H](N(C(=O)Nc2ncc(SCC(=O)O)s2)C2CCCCC2)CC1.CN(C)C(=N)NC(=N)N [Metformin Salt, 1,1-dimethylbiguanide salt of {2-[3-cyclohexyl-3-(trans-4-propoxy-cyclohexyl)-ureido]-thiazol-5-ylsulfanyl}-acetic acid]

SMILES: CCCO[C@H]1CC[C@H](N(C(=O)Nc2ncc(SCC(=O)O)s2)C2CCCCC2)CC1 [UD1, {2-[3-cyclohexyl-3-(trans-4-propoxy-cyclohexyl)-ureido]-thiazol-5-ylsulfanyl}-acetic acid]
- change in glucose levels relative to control, AUC 0-9 hrs (diabetic ob/ob mice): -748 mg·h/dL
- mean post-prandial glucose level (diabetic ob/ob mice; 1 hour following dosing): 321 mg/dL
- mean post-prandial glucose level (diabetic ob/ob mice; 3 hours following dosing): 254 mg/dL
- mean post-prandial glucose level (diabetic ob/ob mice; 5 hours following dosing): 376 mg/dL
- mean post-prandial glucose level (diabetic ob/ob mice; 7 hours following dosing): 382 mg/dL
- mean post-prandial glucose level (diabetic ob/ob mice; 9 hours following dosing): 394 mg/dL
- mean glucose level (diabetic ob/ob mice): 391 mg/dL
